Test results: patent publication US20220144815A1, “1,3,4-OXADIAZOLES AND THEIR DERIVATIVES AS NEW ANTIFUNGAL AGENTS” (Bayer Aktiengesellschaft, priority 2018, published 2022)

Assay: Log P by HPLC on reversed phase columns, method [a] (EEC directive 79/831 Annex V.A8)
Type: physicochemical
Settings: reversed phase HPLC column; Method A: LC-UV, acidic range, 0.1% formic acid in water and acetonitrile; read-out: Log P
How it was run: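 Log P calibrated with C3–C16 straight-chain alkan-2-ones of known Log P, interpolating linearly between retention times. Method per EEC 79/831 Annex V.A8: reversed-phase LC-UV in the acidic range, water/0.1% formic acid and acetonitrile gradient from 10% to 95% acetonitrile.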

chromatographic logP | Compound
1.93 | CCc1noc(-c2ccc(C(=O)NNC(=O)C(F)(F)F)cc2)n1 [IIa.14, 4-(3-ethyl-1,2,4-oxadiazol-5-yl)-N′-(trifluoroacetyl)benzohydrazide]
1.99 | O=C(NNC(=O)C(F)F)c1cnc(NC2(c3ccccc3)CCC2)nc1 [N′-(difluoroacetyl)-2-[(1-phenylcyclobutyl)amino]pyrimidine-5-carbohydrazide]

Same assay, conditions: reversed phase HPLC column; method [a], HPLC on reversed phase columns; read-out: logP

Compound | chromatographic logP
CC(C)(CNc1ncc(-c2nnc(C(F)F)o2)cn1)c1ccc(F)cc1 [I.224, 5-[5-(difluoromethyl)-1,3,4-oxadiazol-2-yl]-N-[2-(4-fluorophenyl)-2-methylpropyl]pyrimidin-2-amine] | 3.44
Fc1ccc(C2(Nc3ncc(-c4nnc(C(F)F)o4)cn3)CC2)cc1F [I.229, 5-[5-(difluoromethyl)-1,3,4-oxadiazol-2-yl]-N-[1-(3,4-difluorophenyl)cyclopropyl]pyrimidin-2-amine] | 2.84
CC(C)(Nc1ncc(-c2nnc(C(F)F)o2)cn1)c1ccc(Cl)cc1 [I.231, N-[2-(4-chlorophenyl)propan-2-yl]-5-[5-(difluoromethyl)-1,3,4-oxadiazol-2-yl]pyrimidin-2-amine] | 3.55
Fc1ccc(C(F)(F)CNc2ncc(-c3nnc(C(F)F)o3)cn2)cc1 [I.234, N-[2,2-difluoro-2-(4-fluorophenyl)ethyl]-5-[5-(difluoromethyl)-1,3,4-oxadiazol-2-yl]pyrimidin-2-amine] | 2.9
COc1cccc(C2(Nc3ncc(-c4nnc(C(F)F)o4)cn3)CC2)c1F [I.236, 5-[5-(difluoromethyl)-1,3,4-oxadiazol-2-yl]-N-[1-(2-fluoro-3-methoxyphenyl)cyclopropyl]pyrimidin-2-amine] | 2.81
FC(F)c1nnc(-c2cnc(NC(c3ccccc3)c3ccccc3)nc2)o1 [I.238, 5-[5-(difluoromethyl)-1,3,4-oxadiazol-2-yl]-N-(diphenylmethyl)pyrimidin-2-amine] | 3.52
C#CCN(c1ncc(-c2nnc(C(F)F)o2)cn1)C1(c2ccccc2F)CC1 [I.241, 5-[5-(difluoromethyl)-1,3,4-oxadiazol-2-yl]-N-[1-(2-fluorophenyl)cyclopropyl]-N-(prop-2-yn-1-yl)pyrimidin-2-amine] | 4.09
CC(C)(C)c1ccc(C2(Nc3ncc(-c4nnc(C(F)F)o4)cn3)CC2)cc1 [I.242, N-[1-(4-tert-butylphenyl)cyclopropyl]-5-[5-(difluoromethyl)-1,3,4-oxadiazol-2-yl]pyrimidin-2-amine] | 4.05
COc1ccc(C2(Nc3ncc(-c4nnc(C(F)F)o4)cn3)CC2)cc1OC [I.243, 5-[5-(difluoromethyl)-1,3,4-oxadiazol-2-yl]-N-[1-(3,4-dimethoxyphenyl)cyclopropyl]pyrimidin-2-amine] | 2.39
Fc1ccc([C@H](Nc2ncc(-c3nnc(C(F)F)o3)cn2)C2CCCC2)cc1 [I.244, N—[(R)-cyclopentyl(4-fluorophenyl)methyl]-5-[5-(difluoromethyl)-1,3,4-oxadiazol-2-yl]pyrimidin-2-amine] | 4.05
FC(F)Oc1ccc(C2(Nc3ncc(-c4nnc(C(F)F)o4)cn3)CC2)cc1 [I.247, N-{1-[4-(difluoromethoxy)phenyl]cyclopropyl}-5-[5-(difluoromethyl)-1,3,4-oxadiazol-2-yl]pyrimidin-2-amine] | 2.91
FC(F)Oc1ccccc1C1(Nc2ncc(-c3nnc(C(F)F)o3)cn2)CC1 [I.248, N-{1-[2-(difluoromethoxy)phenyl]cyclopropyl}-5-[5-(difluoromethyl)-1,3,4-oxadiazol-2-yl]pyrimidin-2-amine] | 3.21
FC(F)c1nnc(-c2cnc(NC3(c4ccc(C(F)(F)F)cc4)CC3)nc2)o1 [I.250, 5-[5-(difluoromethyl)-1,3,4-oxadiazol-2-yl]-N-{1-[4-(trifluoromethyl)phenyl]cyclopropyl}pyrimidin-2-amine] | 3.25
FC(F)c1nnc(-c2cnc(NC3(c4cc(Cl)ccc4Cl)CC3)nc2)o1 [I.251, N-[1-(2,5-dichlorophenyl)cyclopropyl]-5-[5-(difluoromethyl)-1,3,4-oxadiazol-2-yl]pyrimidin-2-amine] | 3.84
FC(F)c1nnc(-c2cnc(NC3(c4cccc(Cl)c4Cl)CC3)nc2)o1 [I.253, N-[1-(2,3-dichlorophenyl)cyclopropyl]-5-[5-(difluoromethyl)-1,3,4-oxadiazol-2-yl]pyrimidin-2-amine] | 3.74
FC(F)c1nnc(-c2cnc(NC3(c4cc(Cl)cc(Cl)c4)CC3)nc2)o1 [I.254, N-[1-(3,5-dichlorophenyl)cyclopropyl]-5-[5-(difluoromethyl)-1,3,4-oxadiazol-2-yl]pyrimidin-2-amine] | 3.63
CC(C)(Nc1ncc(-c2nnc(C(F)F)o2)cn1)c1cccc(C(F)(F)F)c1 [I.256, 5-[5-(difluoromethyl)-1,3,4-oxadiazol-2-yl]-N-{2-[3-(trifluoromethyl)phenyl]propan-2-yl}pyrimidin-2-amine] | 3.63
Fc1ccccc1C1(N(CC(F)F)c2ncc(-c3nnc(C(F)F)o3)cn2)CC1 [I.261, N-(2,2-difluoroethyl)-5-[5-(difluoromethyl)-1,3,4-oxadiazol-2-yl]-N-[1-(2-fluorophenyl)cyclopropyl]pyrimidin-2-amine] | 4.4
FC(F)c1nnc(-c2cnc(NC3(c4cccc(OC(F)(F)F)c4)CC3)nc2)o1 [I.262, 5-[5-(difluoromethyl)-1,3,4-oxadiazol-2-yl]-N-{1-[3-(trifluoromethoxy)phenyl]cyclopropyl}pyrimidin-2-amine] | 3.37
Fc1cc(C(F)(F)F)ccc1C1(Nc2ncc(-c3nnc(C(F)F)o3)cn2)CC1 [I.263, 5-[5-(difluoromethyl)-1,3,4-oxadiazol-2-yl]-N-{1-[2-fluoro-4-(trifluoromethyl)phenyl]cyclopropyl}pyrimidin-2-amine] | 3.59
FC(F)c1nnc(-c2cnc(NC3(c4cccc(Oc5ccccc5)c4)CC3)nc2)o1 [I.265, 5-[5-(difluoromethyl)-1,3,4-oxadiazol-2-yl]-N-[1-(3-phenoxyphenyl)cyclopropyl]pyrimidin-2-amine] | 3.62
O=C(N(c1ncc(-c2nnc(C(F)F)o2)cn1)C1(c2ccccc2F)CC1)C(F)(F)F [I.267, N-{5-[5-(difluoromethyl)-1,3,4-oxadiazol-2-yl]pyrimidin-2-yl}-2,2,2-trifluoro-N-[1-(2-fluorophenyl)cyclopropyl]acetamide] | 3.91

The next lines start with the values.

chromatographic logP | Compound
3.45 | FC(F)c1nnc(-c2cnc(NC3(c4cccs4)CCCC3)nc2)o1 [I.225, 5-[5-(difluoromethyl)-1,3,4-oxadiazol-2-yl]-N-[1-(2-thienyl)cyclopentyl]pyrimidin-2-amine]
3.16 | FC(F)c1nnc(-c2cnc(NC3(c4ccc(Cl)cc4)CC3)nc2)o1 [I.226, N-[1-(4-chlorophenyl)cyclopropyl]-5-[5-(difluoromethyl)-1,3,4-oxadiazol-2-yl]pyrimidin-2-amine]
3.11 | FC(F)c1nnc(-c2cnc(NC3(c4cccc(Cl)c4)CC3)nc2)o1 [I.227, N-[1-(3-chlorophenyl)cyclopropyl]-5-[5-(difluoromethyl)-1,3,4-oxadiazol-2-yl]pyrimidin-2-amine]
2.31 | FC(F)c1nnc(-c2cnc(NC3(c4cc(Cl)ccn4)CC3)nc2)o1 [I.228, N-[1-(4-chloropyridin-2-yl)cyclopropyl]-5-[5-(difluoromethyl)-1,3,4-oxadiazol-2-yl]pyrimidin-2-amine]
3.71 | FC(F)c1nnc(-c2cnc(NC3(c4ccc(Cl)cc4)CCC3)nc2)o1 [I.237, N-[1-(4-chlorophenyl)cyclobutyl]-5-[5-(difluoromethyl)-1,3,4-oxadiazol-2-yl]pyrimidin-2-amine]
2.91 | FC(F)Oc1cccc(C2(Nc3ncc(-c4nnc(C(F)F)o4)cn3)CC2)c1 [I.246, N-{1-[3-(difluoromethoxy)phenyl]cyclopropyl}-5-[5-(difluoromethyl)-1,3,4-oxadiazol-2-yl]pyrimidin-2-amine]
3.24 | FC(F)c1nnc(-c2cnc(NC3(c4cccc(C(F)(F)F)c4)CC3)nc2)o1 [I.249, 5-[5-(difluoromethyl)-1,3,4-oxadiazol-2-yl]-N-{1-[3-(trifluoromethyl)phenyl]cyclopropyl}pyrimidin-2-amine]
3.43 | FC(F)c1nnc(-c2cnc(NC3(c4ccc(Cl)c(Cl)c4)CC3)nc2)o1 [I.252, N-[1-(3,4-dichlorophenyl)cyclopropyl]-5-[5-(difluoromethyl)-1,3,4-oxadiazol-2-yl]pyrimidin-2-amine]
4.05 | FC(F)c1nnc(-c2cnc(NC3(c4ccc(Cl)cc4Cl)CC3)nc2)o1 [I.255, N-[1-(2,4-dichlorophenyl)cyclopropyl]-5-[5-(difluoromethyl)-1,3,4-oxadiazol-2-yl]pyrimidin-2-amine]
4.35 | FC(F)c1nnc(-c2cnc(NC3(c4cccc(Cl)c4)CCCCC3)nc2)o1 [I.258, N-[1-(3-chlorophenyl)cyclohexyl]-5-[5-(difluoromethyl)-1,3,4-oxadiazol-2-yl]pyrimidin-2-amine]
2.96 | O=[N+]([O-])c1cc(C2(Nc3ncc(-c4nnc(C(F)F)o4)cn3)CC2)ccc1Cl [I.259, N-[1-(4-chloro-3-nitrophenyl)cyclopropyl]-5-[5-(difluoromethyl)-1,3,4-oxadiazol-2-yl]pyrimidin-2-amine]
4.16 | FC(F)c1nnc(-c2cnc(NC3(c4ccc(C(F)(F)F)cc4)CCCC3)nc2)o1 [I.266, 5-[5-(difluoromethyl)-1,3,4-oxadiazol-2-yl]-N-{1-[4-(trifluoromethyl)phenyl]cyclopentyl}pyrimidin-2-amine]
4.38 | FC(F)c1nnc(-c2cnc(NC3(c4ccccc4Br)CCCCC3)nc2)o1 [I.268, N-[1-(2-bromophenyl)cyclohexyl]-5-[5-(difluoromethyl)-1,3,4-oxadiazol-2-yl]pyrimidin-2-amine]
